Source: patent US20260008783A1, “MODULATORS OF FSHR AND USES THEREOF” (Celmatix Inc., priority 2022, published 2026)

molecular target: T1, Follicle Stimulating Hormone Receptor (FSHR) (Homo sapiens, UniProt P23945); assay: HTRF cAMP agonist assay, FSHR, transiently transfected CHO-K1 cells; format: cell-based; conditions: CHO-K1 cells transiently expressing human FSHR, read-out: IC50 FSHR LANCE CAMP
T1 construct: HA (N); expressed in transfected cells; host or cells: CHO-K1, transient transfection, pHM6 vector (CMV promoter)
T1 sequence (P23945 18-695): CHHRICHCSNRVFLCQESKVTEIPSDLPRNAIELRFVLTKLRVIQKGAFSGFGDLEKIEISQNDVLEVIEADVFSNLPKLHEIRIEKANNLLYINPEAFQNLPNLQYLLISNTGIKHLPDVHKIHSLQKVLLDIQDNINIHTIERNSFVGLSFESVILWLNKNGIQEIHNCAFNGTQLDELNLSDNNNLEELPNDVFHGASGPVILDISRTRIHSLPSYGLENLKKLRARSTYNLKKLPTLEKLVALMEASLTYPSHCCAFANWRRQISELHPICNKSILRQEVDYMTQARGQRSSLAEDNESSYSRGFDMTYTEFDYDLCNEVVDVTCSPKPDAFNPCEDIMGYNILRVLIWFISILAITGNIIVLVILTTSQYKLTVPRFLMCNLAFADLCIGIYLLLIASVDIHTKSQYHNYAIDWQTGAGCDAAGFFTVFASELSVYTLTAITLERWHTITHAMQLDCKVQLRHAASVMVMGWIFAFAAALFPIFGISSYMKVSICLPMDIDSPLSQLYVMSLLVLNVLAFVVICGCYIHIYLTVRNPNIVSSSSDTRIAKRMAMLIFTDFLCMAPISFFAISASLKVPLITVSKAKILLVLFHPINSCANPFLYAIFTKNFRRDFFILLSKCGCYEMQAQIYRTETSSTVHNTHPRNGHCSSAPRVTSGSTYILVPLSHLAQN

Row | IC50 [nM] | SMILES
1 | 94.1 | COc1cc2c(cc1-c1cncc(C(N)=O)c1)-c1c(c(C(=O)N3CCOCC3(C)C)nn1C1CCCCC1)CC2 [Compound 9-16]
2 | 5.64 | COc1cc2c(cc1-c1cncc(C(N)=O)c1)-c1c(c(C(=O)N3CCOCC3(C)C)nn1-c1ccccc1)CC2 [Compound 9-17]
3 | 0.615 | COc1cc2c(cc1-c1cncc(C(N)=O)c1)-c1c(c(C(=O)N3CCOCC3(C)C)nn1-c1cc(F)cc(F)c1)CC2 [Compound 9-18]
4 | 3.85 | COc1cc(Cl)cc(-n2nc(C(=O)N3CCOCC3(C)C)c3c2-c2cc(-c4cncc(C(N)=O)c4)c(OC)cc2CC3)c1 [Compound 9-20]
5 | 1.29 | COc1cc2c(cc1-c1cncc(C(N)=O)c1)-c1c(c(C(=O)N3CCOCC3(C)C)nn1-c1ccsc1)CC2 [Compound 9-21, 5-[3-(3,3-dimethylmorpholine-4-carbonyl)-7-methoxy-1-(3-thienyl)-4,5-dihydrobenzo[g]indazol-8-yl]pyridine-3-carboxamide]
6 | 15500 | COc1cc(Cl)cc(-n2ncc3c2-c2cc(-c4cncc(C(N)=O)c4)c(OC)cc2CC3)c1 [Compound 9-24]
7 | 5.06 | COc1cc2c(cc1-c1cncc(C(N)=O)c1)-c1c(c(C(=O)N3CCOCC3(C)C)nn1-c1ccccn1)CC2 [Compound 10-01, 5-[3-(3,3-dimethylmorpholine-4-carbonyl)-7-methoxy-1-(2-pyridyl)-4,5-dihydrobenzo[g]indazol-8-yl]pyridine-3-carboxamide]
8 | 40.1 | COc1cc2c(cc1-c1cncc(C(N)=O)c1)-c1c(c(C(=O)N3CCOCC3(C)C)nn1-c1cccnc1)CC2 [Compound 10-02]
9 | 190 | COc1cc2c(cc1-c1cncc(C(N)=O)c1)-c1c(c(C(=O)N3CCOCC3(C)C)nn1-c1ccncc1)CC2 [Compound 10-03]
10 | 67.4 | COc1cc2c(cc1-c1cncc(C(N)=O)c1)-c1c(c(C(=O)N3CCOCC3(C)C)nn1-c1cnccn1)CC2 [Compound 10-06]
11 | 22.5 | COc1cc2c(cc1-c1cncc(C(N)=O)c1)-c1c(c(C(=O)N3CCOCC3(C)C)nn1-c1cccnn1)CC2 [Compound 10-07]
12 | 400 | COc1cc2c(cc1-c1cncc(C(N)=O)c1)-c1c(c(C(=O)N3CCOCC3(C)C)nn1-c1ncccn1)CC2 [Compound 10-08]
13 | 165 | COc1cc2c(cc1-c1cncc(C(N)=O)c1)-c1c(c(C(=O)N3CCOCC3(C)C)nn1-c1cncnc1)CC2 [Compound 10-09]
14 | 14.8 | COc1cc2c(cc1-c1cncc(C(N)=O)c1)-c1c(c(C(=O)N3CCOCC3(C)C)nn1-c1ccncn1)CC2 [Compound 10-10]
15 | 50.1 | COC(=O)c1cc(OC)nc(-c2cc3c(cc2OC)CCc2c(C(=O)N(C)C(C)(C)C)nn(-c4cc(Cl)cc(Cl)c4)c2-3)c1 [Compound 11-01A, methyl2-[3-[tert-butyl(methyl)carbamoyl]-1-(3,5-dichlorophenyl)-7-methoxy-4,5-dihydrobenzo[g]indazol-8-yl]-6-methoxy-pyridine-4-carboxylate]
16 | 12.5 | COc1cc(C(N)=O)cc(-c2cc3c(cc2OC)CCc2c(C(=O)N(C)C(C)(C)C)nn(-c4cc(Cl)cc(Cl)c4)c2-3)n1 [Compound 11-01]
17 | 42 | COc1cc(C(N)=O)cc(-c2cc3c(cc2OC)COc2c(C(=O)N(C)C(C)(C)C)nn(-c4cc(Cl)cc(Cl)c4)c2-3)n1 [Compound 11-02, N-tert-butyl-8-(4-carbamoyl-6-methoxy-2-pyridyl)-1-(3,5-dichlorophenyl)-7-methoxy-N-methyl-5H-isochromeno[4,3-c]pyrazole-3-carboxamide]
18 | 75 | COc1cc(C(N)=O)cc(-c2cc3c(cc2OC)CSc2c(C(=O)N(C)C(C)(C)C)nn(-c4cc(Cl)cc(Cl)c4)c2-3)n1 [Compound 11-03, N-tert-butyl-8-(4-carbamoyl-6-methoxy-2-pyridyl)-1-(3,5-dichlorophenyl)-7-methoxy-N-methyl-5H-isothiochromeno[4,3-c]pyrazole-3-carboxamide]
19 | 14.8 | COc1cc2c(cc1-c1cncc(C(N)=O)c1)-c1c(c(C(=O)N3[C@H](C)CN(C)C[C@@H]3C)nn1-c1cc(Cl)cc(Cl)c1)CC2 [Compound 12-01]
20 | 5.07 | COc1cc2c(cc1-c1cncc(C(N)=O)c1)-c1c(c(C(=O)N3[C@H](C)CNC[C@@H]3C)nn1-c1cc(Cl)cc(Cl)c1)OC2 [Compound 12-02, 5-[1-(3,5-dichlorophenyl)-3-[(2R,6S)-2,6-dimethylpiperazine-1-carbonyl]-7-methoxy-5H-isochromeno[4,3-c]pyrazol-8-yl]pyridine-3-carboxamide]

Row | IC50 [nM] | SMILES
21 | 5.09 | COc1cc2c(cc1-c1cncc(C(N)=O)c1)-c1c(c(C(=O)N3COCC3(C)C)nn1-c1cc(Cl)cc(Cl)c1)OC2 [Compound 12-04]
22 | 15.4 | COc1cc2c(cc1-c1cncc(C(N)=O)c1)-c1c(c(C(=O)N3[C@H](C)CNC[C@@H]3C)nn1-c1cc(Cl)cc(Cl)c1)S(=O)(=O)C2 [Compound 12-05]
23 | 21.2 | COc1cc2c(cc1-c1cncc(C(N)=O)c1)-c1c(c(C(=O)N3COCC3(C)C)nn1-c1cc(Cl)cc(Cl)c1)S(=O)(=O)C2 [Compound 12-07]
24 | 26.6 | COc1cc2c(cc1-c1cncc(C(N)=O)c1)-c1c(c(C(=O)N3COCC3(C)C)nn1-c1cc(Cl)cc(Cl)c1)CCO2 [Compound 12-11]
25 | 228 | COc1cc2c(cc1-c1cncc(C(N)=O)c1)-c1c(c(C(=O)N3CCNC(=O)C3(C)C)nn1-c1cc(Cl)cc(Cl)c1)S(=O)(=O)C2 [Compound 12-12]
26 | 4.98 | COc1cc2c(cc1-c1cncc(C(N)=O)c1)-c1c(c(C(=O)N3[C@H](C)CNC[C@@H]3C)nn1-c1cc(Cl)cc(Cl)c1)SC2 [Compound 12-13]
27 | 3.09 | COc1cc2c(cc1-c1cncc(C(N)=O)c1)-c1c(c(C(=O)N3COCC3(C)C)nn1-c1cc(Cl)cc(Cl)c1)SC2 [Compound 12-15]
28 | 20.9 | COc1cc2c(cc1-c1cncc(C(N)=O)c1)-c1c(c(C(=O)N3CCNC(=O)C3(C)C)nn1-c1cc(Cl)cc(Cl)c1)SC2 [Compound 12-16]
29 | 66.8 | COc1cc2c(cc1-c1cncc(C(N)=O)c1)-c1c(c(C(=O)N3CCNC(=O)C3(C)C)nn1-c1cc(Cl)cc(Cl)c1)OC2 [Compound 12-18]
30 | 36.7 | COc1cc2c(cc1-c1cncc(C(N)=O)c1)-c1c(c(C(=O)N3CCNC(=O)C3(C)C)nn1-c1ccsc1)CC2 [Compound 12-23, 5-[3-(2,2-dimethyl-3-oxo-piperazine-1-carbonyl)-7-methoxy-1-(3-thienyl)-4,5-dihydrobenzo[g]indazol-8-yl]pyridine-3-carboxamide]
31 | 6740 | CC1(C)C(=O)NCCN1C(=O)c1nn(-c2ccccn2)c2c1CCc1ccc(-c3cccnc3)cc1-2 [Compound 13-01, 3,3-dimethyl-4-[1-(2-pyridyl)-8-(3-pyridyl)-4,5-dihydrobenzo[g]indazole-3-carbonyl]piperazin-2-one]
32 | 2130 | COc1cc2c(cc1-c1cncc(C(N)=O)c1)-c1c(c(C(=O)N3CCNC(=O)C3(C)C)nn1CC(C)C)CC2 [Compound 13-09, 5-[3-(2,2-dimethyl-3-oxo-piperazine-1-carbonyl)-1-isobutyl-7-methoxy-4,5-dihydrobenzo[g]indazol-8-yl]pyridine-3-carboxamide]
33 | 13800 | COc1cc2c(cc1-c1cncc(C(N)=O)c1)-c1c(c(C(=O)N3CCNC(=O)C3(C)C)nn1CC(C)C)CC2 [Compound 14-03]
34 | 75.8 | COc1cc2c(cc1-c1cncc(C(N)=O)c1)-c1c(c(C(=O)N3CCNC(=O)C3(C)C)nn1-c1ccccn1)CC2 [Compound 15-01, 5-[3-(2,2-dimethyl-3-oxo-piperazine-1-carbonyl)-7-methoxy-1-(2-pyridyl)-4,5-dihydrobenzo[g]indazol-8-yl]pyridine-3-carboxamide]
35 | 477 | COc1cc2c(cc1-c1cccnc1)-c1c(c(C(=O)N3CCNC(=O)C3(C)C)nn1-c1ccccn1)CC2 [Compound 15-02]
36 | 31.1 | COc1cc2c(cc1-c1cccnc1)-c1c(c(C(=O)N3CCNC(=O)C3(C)C)nn1-c1cc(Cl)cc(Cl)c1)CC2 [Compound 15-03, 4-[1-(3,5-dichlorophenyl)-7-methoxy-8-(3-pyridyl)-4,5-dihydrobenzo[g]indazole-3-carbonyl]-3,3-dimethyl-piperazin-2-one]
37 | 381 | CC1(C)C(=O)NCCN1C(=O)c1nn(-c2cc(Cl)cc(Cl)c2)c2c1CCc1ccc(-c3cncc(C(N)=O)c3)cc1-2 [Compound 15-04, 5-[1-(3,5-dichlorophenyl)-3-(2,2-dimethyl-3-oxo-piperazine-1-carbonyl)-4,5-dihydrobenzo[g]indazol-8-yl]pyridine-3-carboxamide]
38 | 363 | COc1cc2c(cc1-c1cncc(C(N)=O)c1)-c1c(c(C(=O)N3CCNC(=O)C3(C)C)nn1-c1ccncn1)CC2 [Compound 15-05, 5-(3-(2,2-dimethyl-3-oxopiperazine-1-carbonyl)-7-methoxy-1-(pyrimidin-4-yl)-4,5-dihydro-1H-benzo[g]indazol-8-yl)nicotinamide]
39 | 3620 | COc1cc2c(cc1-c1cncc(C(N)=O)c1)-c1c(c(C(=O)N3CCNC(=O)C3(C)C)nn1-c1cccnn1)CC2 [Compound 15-06]
40 | 7.32 | COc1cc2c(cc1-c1cccnc1)-c1c(c(C(=O)N3CCOCC3(C)C)nn1-c1cc(F)cc(F)c1)CO2 [Compound 15-08]
